Laboratory results from patent publication US8486651B2, “Method for treating a disorder associated with Eya dysregulation by modulating Eya phosphatase activity” (Children's Hospital Medical Center, priority 2008, dated 2013).

Assays:
Eya = Eya phosphatase activity pNPP screen, plate controls; assay type: biochemical; conditions: plate control
Experimental: Phosphatase Activity Assay. Phosphatase activity of Eya is measured using the p-nitrophenyl phosphate (pNPP) assay. In this assay, reaction mixtures of approximately 60 uL in 20 mM MES (pH 5.5), various concentrations of pNPP and cations are pre-equilibrated at 30° C. for 10 minutes. The assay is initiated by the addition of 0.3 ug of enzyme in 20 mM Tris (pH 8.0) and 150 mM NaCl. The reaction mixture is incubated for 20 minutes, and then quenched with 100 uL of 0.4 M EDTA, pH 10.0. Release of p-nitrophenol (pNP) is monitored by measuring absorbance at a wavelength of 410 (A410) and extrapolating the values into the Michaelis-Menten equation using SIGMAPLOT (SPSS Science, Chicago, Ill.). pNP release can be plotted as a function of time when various enzyme concentrations are used.
The protocol is substantially that described in references 4, 17 and 18. Eya phosphatase activity is measured using the model chromogenic substrate p-nitro-phenylphosphate (pNPP) as described. […] To ensure data quality and assay robustness, the Z value is used. The Z value is based on the difference between the signal of the positive control (ie, no test compound) and that of the negative control (no Eya protein or polypeptide). The Z value incorporates the standard deviation of each signal. A Z value of 1.0 is considered perfect, and Z values above 0.5 are generally considered ideal for HTS. […] In both the primary and secondary screen, every plate also contains three additional controls: 20 mM Na-o-vanadate (which inhibits Eya), 20 mM EDTA (which inhibits 100% of Eya activity) and 50 mM NaF (which inhibits Eya).

[1] = system: T1, histone H2AX C-terminus peptide (KKATQASQEpY)
T1 sequence: KKATQASQEY

human SIX6 = target: T2, human SIX6 (UniProt O95475)
T2 sequence: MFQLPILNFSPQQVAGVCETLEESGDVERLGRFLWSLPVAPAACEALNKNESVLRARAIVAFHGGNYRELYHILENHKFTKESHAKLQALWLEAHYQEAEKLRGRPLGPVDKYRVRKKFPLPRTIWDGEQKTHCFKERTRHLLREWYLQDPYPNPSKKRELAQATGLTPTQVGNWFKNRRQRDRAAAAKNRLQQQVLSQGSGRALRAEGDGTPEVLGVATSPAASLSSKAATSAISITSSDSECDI

[2] = system: T3, Six2 fragment derived from mouse Six protein (SEQ ID NO. 6)
T3 sequence: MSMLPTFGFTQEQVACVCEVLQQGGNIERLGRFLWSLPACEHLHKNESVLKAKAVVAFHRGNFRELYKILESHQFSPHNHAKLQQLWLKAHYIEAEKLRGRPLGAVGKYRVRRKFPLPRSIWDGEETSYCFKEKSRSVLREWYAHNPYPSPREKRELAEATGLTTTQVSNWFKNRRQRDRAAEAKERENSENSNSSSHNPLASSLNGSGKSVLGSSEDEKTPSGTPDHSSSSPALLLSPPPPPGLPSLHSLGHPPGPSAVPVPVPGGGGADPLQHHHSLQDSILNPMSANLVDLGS

## O=C(O)CN(CCN(CC(=O)O)CC(=O)O)CC(=O)O [EDTA]
Eya; 20 mM EDTA
  inhibition of Eya activity: 100%

## [Na+].[Na+].[Na+].[O]=[V]([O-])([O-])[O-] [Na-o-vanadate]
Eya; 20 mM Na-o-vanadate
  inhibition of Eya: inhibits Eya

## [F-].[Na+] [NaF]
Eya; 50 mM NaF
  inhibition of Eya: inhibits Eya

## Full-length murine Eya3
[1]
  catalytic rate of dephosphorylation of the tyrosine-phosphorylated H2AX peptide: The ability of Eya3 to dephosphorylate a tyrosine-phosphorylated peptide derived from H2AX was monitored in the presence or absence of stoichiometric amounts of either SIX2 or SIX6. The catalytic rate at increasing concentrations of H2AX-pY peptide was measured.
Human SIX6
  kcat of Eya3 (dephosphorylation of the H2AX-pY peptide, malachite-green type phosphate release), with stoichiometric SIX6: The interaction with these SIX proteins increases the kcat of Eya3, while the Km values remain relatively similar.
[2]
  kcat of Eya3 (dephosphorylation of the H2AX-pY peptide, malachite-green type phosphate release), with stoichiometric SIX2: The interaction with these SIX proteins increases the kcat of Eya3, while the Km values remain relatively similar.
